One series concerns the target PI3K (p110α/p85α) (h) (Homo sapiens (Human), UniProt P42336). Briefly: PI3K (p110α/p85α) (h) non-radioactive HTRF kinase assay. It counts as biochemical. The protocol: (§1) PI3K (p110α/p85α) (h) is incubated in assay buffer containing 10 μM phosphatidylinositol 4,5-bisphosphate and MgATP (concentration as required). The reaction is initiated by the addition of the ATP solution. After incubation for 30 minutes at room temperature, the reaction is stopped by the addition of stop solution containing EDTA and biotinylated phosphatidylinositol-3,4,5-trisphosphate. Finally, detection buffer is added, which contains europium-labelled anti-GST monoclonal antibody, GST-tagged GRP1 PH domain and streptavidin allophycocyanin. The plate is then read in timeresolved fluorescence mode and the homogenous time-resolved fluorescence (HTRF) signal is determined according to the formula HTRF=10000×(Em665 nm/Em620 nm).
(§2) The kinase assays described herein were performed at Millipore UK Ltd, Dundee Technology Park, Dundee DD2 1SW, UK.
A general note: TR-FRET usually uses a lanthanide donor and a delayed reading to cut background.

Another series addresses PI3K (p110β/p85α) (h) (Homo sapiens (Human), UniProt P42338). Kind of series: PI3K (p110β/p85α) (h) non-radioactive HTRF kinase assay. Type of series: biochemical. The protocol: as §1, with “(p110β/p85α)” for “(p110α/p85α)”, “phosphatidylinositol-4,5-bisphosphate” for “phosphatidylinositol 4,5-bisphosphate”, “MgATP mix.” for “ATP solution.”, “streptavidin-allophycocyanin.” for “streptavidin allophycocyanin.”
as §2

A further series addresses PI3K (p110δ/p85α) (h) (Homo sapiens (Human), UniProt O00329). Briefly: PI3K (p110δ/p85α) (h) non-radioactive HTRF kinase assay. Type of series: biochemical. As to the method:
as §1, with “(p110δ/p85α)” for “(p110α/p85α)”, “phosphatidylinositol-4, 5-bisphosphate” for “phosphatidylinositol 4,5-bisphosphate”, “MgATP mix.” for “ATP solution.”, “streptavidin-allophycocyanin.” for “streptavidin allophycocyanin.”
as §2

A further series deals with PI3K (p120γ) (h) (Homo sapiens (Human), UniProt P48736). Kind of series: PI3K (p120γ) (h) non-radioactive HTRF kinase assay. It counts as biochemical. The protocol:
as §1, with “(p120γ)” for “(p110α/p85α)”, “phosphatidylinositol-4, 5-bisphosphate” for “phosphatidylinositol 4,5-bisphosphate”, “MgATP mix.” for “ATP solution.”, “streptavidin-allophycocyanin.” for “streptavidin allophycocyanin.”
as §2

Series [1] is described as follows: Compound stability in human liver microsomes. Type of series: in vitro ADME. As to conditions: pH 7.4; for CLint scaled at 5 μM: liver microsomes, in vivo CLint extrapolated from human liver microsome incubation; for half-life at 5 μM: human liver microsomes 0.5 mg protein/mL, compound 5 μM, NADPH, 37° C., read-out: Human T1/2. As to the method: (§3) Human or rat liver microsomes incubations were conducted in duplicate in polypropylene tubes. The typical incubation mixtures consisted of human or rat liver microsomes (0.5 mg protein/mL), compounds of interest (5 μM) and NADPH (1.0 mM) in a total volume of 200 μL potassium phosphate buffer (PBS, 100 mM, pH 7.4). Compounds were dissolved in DMSO and diluted with PBS such that the final concentration of DMSO was 0.05%. The enzymatic reactions were commenced with the addition of protein after a 3-min preincubation and incubated in a water bath open to the air at 37° C. Reactions were terminated at various time points (0, 5, 10, 15, 30, 60 min) by adding equal volume of ice-cold acetonitrile. The samples were stored at −80° C. until LC/MS/MS assays.
(§4) The concentrations of compounds in the incubation mixtures of human or rat liver microsomes were determined by a LC/MS/MS method. The ranges of the linearity in the concentration range were determined for each tested compounds.
(§5) A parallel incubation was performed using denatured microsomes as the negative control, and reactions were terminated at various time points (0, 15, 60 min) after incubation at 37° C.
(§6) Dextromethorphan (70 μM) was selected as the positive control, and reactions were terminated at various time points (0, 5, 10, 15, 30, 60 min) after incubation at 37° C. Both positive and negative control samples were included in each assay to ensure the integrity of the microsomal incubation system.
(§7) The concentrations of compounds in human or rat liver microsome incubations were plotted as a percentage of the relevant zero time point control for each reaction.

The nature of series [2]: Compound stability in rat liver microsomes. It counts as in vitro ADME. Conditions: pH 7.4; for CLint scaled at 5 μM: liver microsomes, in vivo CLint extrapolated from rat liver microsome incubation; for half-life at 5 μM: rat liver microsomes 0.5 mg protein/mL, compound 5 μM, NADPH, 37° C., read-out: Rat T1/2. As to the method:
as §3, §4, §5, §6, §7

In patent publication US10751339B2, “Substituted aminopyrimidine compounds and methods of use” (SUNSHINE LAKE PHARMA CO., LTD., priority 2018, dated 2020) one finds IC50, CLint scaled and half-life data, which are given here for 11 compounds.

Structures are written as SMILES.

PI3K (p110δ/p85α) (h), sequence (O00329 whole entry): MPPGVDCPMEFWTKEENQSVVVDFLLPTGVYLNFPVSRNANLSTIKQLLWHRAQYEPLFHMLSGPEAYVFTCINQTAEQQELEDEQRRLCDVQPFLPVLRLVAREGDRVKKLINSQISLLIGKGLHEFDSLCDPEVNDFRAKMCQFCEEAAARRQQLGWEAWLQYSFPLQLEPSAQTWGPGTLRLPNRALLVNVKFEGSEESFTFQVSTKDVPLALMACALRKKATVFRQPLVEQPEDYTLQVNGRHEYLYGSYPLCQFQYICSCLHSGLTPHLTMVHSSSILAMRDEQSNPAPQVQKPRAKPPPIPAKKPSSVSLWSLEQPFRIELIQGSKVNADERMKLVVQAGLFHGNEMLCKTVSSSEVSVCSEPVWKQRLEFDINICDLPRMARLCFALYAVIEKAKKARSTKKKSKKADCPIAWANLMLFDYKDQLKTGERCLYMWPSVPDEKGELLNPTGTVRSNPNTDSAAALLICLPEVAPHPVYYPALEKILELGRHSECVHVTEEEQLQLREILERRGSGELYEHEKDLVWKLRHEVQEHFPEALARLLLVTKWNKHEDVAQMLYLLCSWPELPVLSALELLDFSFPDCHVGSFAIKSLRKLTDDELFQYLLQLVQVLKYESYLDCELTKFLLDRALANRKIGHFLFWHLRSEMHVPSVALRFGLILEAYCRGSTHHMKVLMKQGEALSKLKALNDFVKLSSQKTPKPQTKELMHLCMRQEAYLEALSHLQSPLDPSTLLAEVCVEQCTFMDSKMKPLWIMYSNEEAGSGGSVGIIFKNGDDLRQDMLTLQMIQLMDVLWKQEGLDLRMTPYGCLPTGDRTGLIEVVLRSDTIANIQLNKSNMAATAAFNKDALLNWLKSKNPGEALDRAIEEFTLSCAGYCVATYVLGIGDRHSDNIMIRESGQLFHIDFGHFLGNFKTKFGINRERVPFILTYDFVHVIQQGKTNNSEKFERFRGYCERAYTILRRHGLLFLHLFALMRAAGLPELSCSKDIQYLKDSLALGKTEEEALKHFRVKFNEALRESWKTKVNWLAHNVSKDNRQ
PI3K (p110δ/p85α) (h), sequence (P27986 whole entry partner): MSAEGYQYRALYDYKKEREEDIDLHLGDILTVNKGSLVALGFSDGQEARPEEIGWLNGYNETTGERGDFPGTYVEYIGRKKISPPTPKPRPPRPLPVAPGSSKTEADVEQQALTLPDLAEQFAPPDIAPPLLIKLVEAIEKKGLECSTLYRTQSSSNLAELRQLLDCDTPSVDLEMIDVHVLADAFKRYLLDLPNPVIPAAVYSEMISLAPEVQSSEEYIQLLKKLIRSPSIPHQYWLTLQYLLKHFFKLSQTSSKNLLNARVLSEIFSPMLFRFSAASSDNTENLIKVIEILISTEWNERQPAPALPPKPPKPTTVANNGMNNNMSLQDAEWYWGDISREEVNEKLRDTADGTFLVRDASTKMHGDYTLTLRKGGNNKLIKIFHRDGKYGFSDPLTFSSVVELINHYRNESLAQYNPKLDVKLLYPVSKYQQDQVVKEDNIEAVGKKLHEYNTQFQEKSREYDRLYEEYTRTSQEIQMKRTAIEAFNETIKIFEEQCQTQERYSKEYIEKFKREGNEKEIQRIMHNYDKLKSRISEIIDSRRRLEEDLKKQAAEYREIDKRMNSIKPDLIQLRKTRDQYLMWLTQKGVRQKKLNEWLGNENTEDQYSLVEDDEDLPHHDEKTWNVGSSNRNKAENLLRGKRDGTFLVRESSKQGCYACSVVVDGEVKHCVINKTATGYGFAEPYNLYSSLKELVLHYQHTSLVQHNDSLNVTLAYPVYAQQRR
PI3K (p110α/p85α) (h), sequence (P42336 whole entry, the tested form may be a part): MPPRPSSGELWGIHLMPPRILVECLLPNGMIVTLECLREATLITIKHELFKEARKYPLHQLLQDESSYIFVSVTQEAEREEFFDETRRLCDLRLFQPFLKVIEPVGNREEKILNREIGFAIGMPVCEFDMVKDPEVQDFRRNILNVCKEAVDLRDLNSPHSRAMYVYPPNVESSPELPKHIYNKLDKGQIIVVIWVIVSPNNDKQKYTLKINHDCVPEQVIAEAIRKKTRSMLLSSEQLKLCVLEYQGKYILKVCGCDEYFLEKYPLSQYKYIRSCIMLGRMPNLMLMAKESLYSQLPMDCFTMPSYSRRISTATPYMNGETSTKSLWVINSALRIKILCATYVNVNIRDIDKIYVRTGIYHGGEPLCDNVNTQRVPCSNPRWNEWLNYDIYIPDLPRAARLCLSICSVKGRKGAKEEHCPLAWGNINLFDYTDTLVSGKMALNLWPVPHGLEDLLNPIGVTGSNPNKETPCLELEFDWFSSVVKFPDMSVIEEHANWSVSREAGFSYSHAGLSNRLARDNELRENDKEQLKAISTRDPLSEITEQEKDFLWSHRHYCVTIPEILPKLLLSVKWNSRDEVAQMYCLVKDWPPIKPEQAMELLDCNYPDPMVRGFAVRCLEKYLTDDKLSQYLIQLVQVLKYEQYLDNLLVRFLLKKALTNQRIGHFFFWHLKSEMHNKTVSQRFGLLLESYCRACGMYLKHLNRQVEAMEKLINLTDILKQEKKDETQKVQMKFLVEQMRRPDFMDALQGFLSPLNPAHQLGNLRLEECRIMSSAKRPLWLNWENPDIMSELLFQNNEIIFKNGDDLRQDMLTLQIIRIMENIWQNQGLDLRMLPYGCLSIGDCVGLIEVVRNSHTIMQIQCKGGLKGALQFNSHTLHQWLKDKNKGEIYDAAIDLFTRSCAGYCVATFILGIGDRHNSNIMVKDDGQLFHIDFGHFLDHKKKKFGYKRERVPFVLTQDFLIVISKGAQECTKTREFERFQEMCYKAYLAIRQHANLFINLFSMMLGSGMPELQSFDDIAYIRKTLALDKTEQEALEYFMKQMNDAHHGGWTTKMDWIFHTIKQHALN
PI3K (p110α/p85α) (h), sequence (P27986 whole entry partner, the tested form may be a part): as the sequence (P27986 whole entry partner) above
PI3K (p120γ) (h), sequence (P48736 whole entry): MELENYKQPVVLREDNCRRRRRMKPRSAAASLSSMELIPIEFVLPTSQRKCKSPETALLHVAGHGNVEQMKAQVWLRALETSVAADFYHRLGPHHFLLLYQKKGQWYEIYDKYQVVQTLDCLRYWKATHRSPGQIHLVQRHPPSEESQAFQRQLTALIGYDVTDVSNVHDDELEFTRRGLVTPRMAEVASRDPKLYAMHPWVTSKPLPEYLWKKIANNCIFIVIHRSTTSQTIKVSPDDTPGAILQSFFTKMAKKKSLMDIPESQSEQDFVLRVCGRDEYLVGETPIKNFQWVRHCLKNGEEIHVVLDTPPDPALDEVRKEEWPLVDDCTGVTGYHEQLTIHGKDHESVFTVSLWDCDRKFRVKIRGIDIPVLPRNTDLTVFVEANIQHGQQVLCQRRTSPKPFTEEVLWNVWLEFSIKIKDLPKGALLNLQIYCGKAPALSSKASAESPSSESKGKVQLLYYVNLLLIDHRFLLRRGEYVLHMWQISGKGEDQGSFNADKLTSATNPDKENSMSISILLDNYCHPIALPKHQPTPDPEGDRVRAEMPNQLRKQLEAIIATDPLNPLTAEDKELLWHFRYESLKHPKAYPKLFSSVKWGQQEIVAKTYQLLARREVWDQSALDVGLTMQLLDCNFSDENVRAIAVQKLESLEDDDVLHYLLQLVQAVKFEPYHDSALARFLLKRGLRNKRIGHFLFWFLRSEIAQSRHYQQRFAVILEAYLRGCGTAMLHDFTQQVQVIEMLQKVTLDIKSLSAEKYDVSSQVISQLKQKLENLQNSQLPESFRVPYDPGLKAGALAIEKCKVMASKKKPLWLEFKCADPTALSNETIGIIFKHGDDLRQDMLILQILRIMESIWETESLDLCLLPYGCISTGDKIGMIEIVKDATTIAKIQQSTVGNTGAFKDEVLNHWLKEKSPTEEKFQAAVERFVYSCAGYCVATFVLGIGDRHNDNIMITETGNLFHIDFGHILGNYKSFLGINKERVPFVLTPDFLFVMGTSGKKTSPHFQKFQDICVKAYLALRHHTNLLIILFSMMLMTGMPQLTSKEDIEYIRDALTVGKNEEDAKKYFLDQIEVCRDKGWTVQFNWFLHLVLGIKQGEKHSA
PI3K (p110β/p85α) (h), sequence (P42338 whole entry): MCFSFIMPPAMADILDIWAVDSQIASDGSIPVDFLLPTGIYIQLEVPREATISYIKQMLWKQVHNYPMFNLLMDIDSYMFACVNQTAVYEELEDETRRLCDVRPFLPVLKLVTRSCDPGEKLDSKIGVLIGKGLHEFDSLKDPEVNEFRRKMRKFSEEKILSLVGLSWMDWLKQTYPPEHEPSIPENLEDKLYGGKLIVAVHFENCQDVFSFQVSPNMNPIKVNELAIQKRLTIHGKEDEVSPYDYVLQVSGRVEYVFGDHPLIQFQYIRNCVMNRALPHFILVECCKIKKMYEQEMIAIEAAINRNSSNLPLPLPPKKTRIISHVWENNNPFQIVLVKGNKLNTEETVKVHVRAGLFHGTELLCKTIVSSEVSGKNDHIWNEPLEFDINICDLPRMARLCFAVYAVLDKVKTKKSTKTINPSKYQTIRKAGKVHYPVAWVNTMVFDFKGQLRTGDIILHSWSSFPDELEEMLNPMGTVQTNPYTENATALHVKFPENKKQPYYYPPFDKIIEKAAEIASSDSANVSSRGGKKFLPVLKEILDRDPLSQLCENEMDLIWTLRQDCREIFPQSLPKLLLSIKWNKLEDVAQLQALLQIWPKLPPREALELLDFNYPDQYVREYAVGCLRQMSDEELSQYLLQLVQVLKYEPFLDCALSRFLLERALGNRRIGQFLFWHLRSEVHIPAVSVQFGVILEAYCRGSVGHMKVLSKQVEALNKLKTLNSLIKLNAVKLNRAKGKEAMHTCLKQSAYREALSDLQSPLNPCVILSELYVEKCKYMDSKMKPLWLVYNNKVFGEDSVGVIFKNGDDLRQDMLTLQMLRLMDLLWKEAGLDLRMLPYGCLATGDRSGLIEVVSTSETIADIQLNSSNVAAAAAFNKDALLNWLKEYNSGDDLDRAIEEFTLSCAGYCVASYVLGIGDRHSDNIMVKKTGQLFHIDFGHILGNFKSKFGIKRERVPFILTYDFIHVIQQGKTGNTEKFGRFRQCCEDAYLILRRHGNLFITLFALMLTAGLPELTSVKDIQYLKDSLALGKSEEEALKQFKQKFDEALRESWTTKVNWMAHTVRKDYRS
PI3K (p110β/p85α) (h), sequence (P27986 whole entry partner): as the sequence (P27986 whole entry partner) above

By IC50 is commonly meant the concentration needed to halve the response being measured. `CC#Cc1cccc2nc([C@H](CC)Nc3ncnc(N)c3-c3nnc(C)o3)n(-c3ccccc3)c(=O)c12` [Example 15, (S)-2-(1-((6-amino-5-(5-methyl-1,3,4-oxadiazol-2-yl)pyrimidin-4-yl)amino)propyl)-3-phenyl-5-(prop-1-yn-1-yl)quinazolin-4(3H)-one]: the 50% inhibitory concentration (IC50) at PI3K (p110α/p85α) (h) was over 3000 nM; at PI3K (p110β/p85α) (h), over 3000 nM; at PI3K (p110δ/p85α) (h), 27 nM; on PI3K (p120γ) (h), 704 nM.

For orientation: CLint scaled means the capacity of the preparation to metabolise the compound, expressed as a volume cleared per time. In the case of `CC[C@H](Nc1ncnc(N)c1-c1nnc(C)o1)c1nc2cccc(C#CCO)c2c(=O)n1-c1ccccc1` [Example 37, (S)-2-(1-((6-amino-5-(5-methyl-1,3,4-oxadiazol-2-yl)pyrimidin-4-yl)amino)propyl)-5-(3-hydroxyprop-1-yn-1-yl)-3-phenylquinazolin-4(3H)-one], the CLint scaled at 5 μM in series [1] is 39.8 mL/min/kg; in series [2], 113 mL/min/kg. Moreover, the half-life at 5 μM in series [1] is 43.7 min; in series [2], 22 min. Further, the 50% inhibitory concentration (IC50) on PI3K (p110α/p85α) (h) is over 3000 nM; at PI3K (p110β/p85α) (h), over 3000 nM; on PI3K (p110δ/p85α) (h), 45 nM; on PI3K (p120γ) (h) it was 440 nM.

With `CC[C@H](Nc1ncnc(N)c1-c1nc(C)no1)c1nc2cccc(C#CCO)c2c(=O)n1-c1ccccc1` [Example 36, (S)-2-(1-((6-amino-5-(3-methyl-1,2,4-oxadiazol-5-yl)pyrimidin-4-yl)amino)propyl)-5-(3-hydroxyprop-1-yn-1-yl)-3-phenylquinazolin-4(3H)-one], the intrinsic metabolic clearance (CLint scaled) at 5 μM is 98.3 mL/min/kg in series [1] and 138 mL/min/kg in series [2]. The half-life at 5 μM in series [1] is 17.7 min; in series [2], 18 min. The IC50 is 2660 nM on PI3K (p110α/p85α) (h), 395 nM at PI3K (p110β/p85α) (h), 10 nM on PI3K (p110δ/p85α) (h) and 30 nM on PI3K (p120γ) (h).

As to `Cc1noc(-c2c(N)ncnc2N[C@@H](C)c2nc3cccc(C#CC(C)O)c3c(=O)n2-c2ccccc2)n1` (stereo partly drawn) [Example 5, 2-((S)-1-((6-amino-5-(3-meth-1,2,4-oxadiazol-5-1)pyrimidin-4-1)amino)ethyl)-5-(3-hydroxybut-1-yn-1-yl)-3-phenylquinazolin-4(3H)-one], the CLint scaled at 5 μM in series [1] was 20.8 mL/min/kg; in series [2] it was 28 mL/min/kg. Besides, the half-life at 5 μM was 83.7 min in series [1] and 88.7 min in series [2]. In addition, the 50% inhibitory concentration (IC50) at PI3K (p110α/p85α) (h) came out at 2400 nM; on PI3K (p110β/p85α) (h), 1870 nM; at PI3K (p110δ/p85α) (h), 17 nM; at PI3K (p120γ) (h) it was 512 nM.

Consider `CC#Cc1cccc2nc([C@H](C)Nc3ncnc(N)c3-c3nnc(C)o3)n(-c3ccccc3)c(=O)c12` [Example 10, (S)-2-(1-((6-amino-5-(5-methyl-1,3,4-oxadiazol-2-yl)pyrimidin-4-yl)amino)ethyl)-3-phenyl-5-(prop-1-yn-1-yl)quinazolin-4(3H)-one], for which the concentration for half-maximal inhibition (IC50) on PI3K (p110α/p85α) (h) was 2800 nM; at PI3K (p110β/p85α) (h), 548 nM; at PI3K (p110δ/p85α) (h) it was 6 nM; on PI3K (p120γ) (h), 340 nM.

As for `Cc1noc(-c2c(N)ncnc2N[C@@H](C)c2cc3cccc(C#CCO)c3c(=O)n2C2CC2)n1` [Example 33, (S)-3-(1-((6-amino-5-(3-methyl-1,2,4-oxadiazol-5-yl)-pyrimidin-4-yl)amino)ethyl)-2-cyclopropyl-8-(3-hydroxyprop-1-yn-1-yl)-isoquinolin-1 (2H)-one], the concentration for half-maximal inhibition (IC50) on PI3K (p110α/p85α) (h) stood at 1000 nM; on PI3K (p110β/p85α) (h), 104 nM; on PI3K (p110δ/p85α) (h), 11 nM; on PI3K (p120γ) (h) it was 118 nM.

With `Cc1noc(-c2c(N)ncnc2N[C@@H](C)c2cc3cccc(C#CCO)c3c(=O)n2-c2ccccc2)n1` [Example 40, (S)-3-(1-((6-amino-5-(3-methyl-1,2,4-oxadiazol-5-yl)pyrimidin-4-yl)amino)ethyl)-8-(3-hydroxyprop-1-yn-1-yl)-2-phenylisoquinolin-1 (2H)-one], the IC50 at PI3K (p110α/p85α) (h) was 704 nM; at PI3K (p110β/p85α) (h) it was 154 nM; on PI3K (p110δ/p85α) (h), 5 nM; at PI3K (p120γ) (h), 44 nM.

For `Cc1noc(-c2c(N)ncnc2N[C@@H](C)c2nc3ccc(F)c(C#CCO)c3c(=O)n2-c2ccccc2)n1` [Example 42, (S)-2-(1-((6-amino-5-(3-methyl-1,2,4-oxadiazol-5-yl)pyrimidin-4-yl)amino)ethyl)-6-fluoro-5-(3-hydroxyprop-1-yn-1-yl)-3-phenylquinazolin-4(3H)-one], the IC50 is over 3000 nM at PI3K (p110α/p85α) (h), 1600 nM on PI3K (p110β/p85α) (h), 17 nM on PI3K (p110δ/p85α) (h) and 349 nM at PI3K (p120γ) (h).

Regarding `CC[C@H](Nc1ncnc(N)c1-c1nc(C)no1)c1nc2cccc(C#CCO)c2c(=O)n1C1CC1` [Example 29, (S)-2-(1-((6-amino-5-(3-methyl-1,2,4-oxadiazol-5-yl)pyrimidin-4-yl)amino)propyl)-3-cyclopropyl-5-(3-hydroxyprop-1-yn-1-yl)quinazolin-4(3H)-one], the intrinsic metabolic clearance (CLint scaled) at 5 μM in series [1] was 72.2 mL/min/kg; in series [2] it was 88.8 mL/min/kg. Also, the half-life at 5 μM amounted to 24.1 min in series [1] and 28 min in series [2]. In addition, the IC50 on PI3K (p110α/p85α) (h) is over 3000 nM; on PI3K (p110β/p85α) (h) it was 119 nM; on PI3K (p110δ/p85α) (h), 24 nM; at PI3K (p120γ) (h) it was 77 nM.

With `CC#Cc1cccc2nc([C@H](CC)Nc3ncnc(N)c3-c3nc(C)no3)n(-c3ccccc3)c(=O)c12` [Example 14, (S)-2-(1-((6-amino-5-(3-methyl-1,2,4-oxadiazol-5-yl)pyrimidin-4-yl)amino)propyl)-3-phenyl-5-(prop-1-yn-1-yl)quinazolin-4(3H)-one], the intrinsic metabolic clearance (CLint scaled) at 5 μM in series [1] is 150 mL/min/kg; in series [2], 213 mL/min/kg. The half-life at 5 μM in series [1] is 11.6 min; in series [2] it was 11.7 min. Further, the IC50 on PI3K (p110α/p85α) (h) amounted to 1890 nM; at PI3K (p110β/p85α) (h), 582 nM; on PI3K (p110δ/p85α) (h), 8 nM; at PI3K (p120γ) (h), 15 nM.

With `CC#Cc1cccc2nc([C@H](C)Nc3ncnc(N)c3-c3nc(C)no3)n(-c3ccccc3)c(=O)c12` [Example 9, (S)-2-(1-((6-amino-5-(3-methyl-1,2,4-oxadiazol-5-yl)pyrimidin-4-yl)amino)ethyl)-3-phenyl-5-(prop-1-yn-1-yl)quinazolin-4(3H)-one], the CLint scaled at 5 μM in series [1] is 80.5 mL/min/kg; in series [2], 85.2 mL/min/kg. Moreover, the half-life at 5 μM in series [1] amounted to 21.6 min; in series [2] it was 29.2 min. In addition, the IC50 on PI3K (p110α/p85α) (h) was found to be 460 nM; at PI3K (p110β/p85α) (h) it was 151 nM; at PI3K (p110δ/p85α) (h), 2 nM; at PI3K (p120γ) (h), 47 nM.
